Experimental data: patent publication US4959356A, “Porphyrins for boron neutron capture therapy” (The United States of America as represented by the United …, priority 1989, dated 1990)
Like-named read-outs stand apart in the source and are kept apart here.

How the values were obtained:
tumor cell = conditions: in vitro; cited from earlier work
[1] = system: transplanted Harding-Passey melanomas; set-up: species or system BALB/c mice; conditions: mouse, in vivo
Experimental: The porphyrins of the present invention were tested for biodistribution and tumor uptake. BALB/c mice carrying transplanted Harding-[…] melanomas subcutaneously on the thigh or abdomen were given six intraperitoneal 0.5 mL injections over two days. The injection solutions contained 1 mg of compound/mL which is a total dose of 3 mg/mouse (approx. 150 μg porphyrin/g body weight or 32.2 μg B/g body weight). The compounds of formula II were completely water soluble and were allowed a 2 day clearance period post injection. The boron content was assayed by prompt gamma analysis using the gamma ray from the ^10 B(n,α)^7 Li reaction. Counts from the […] prompt-.tau.-ray are detected and analyzed using a narrow collimated thermal neutron beam from the Medical Research Reactor at Brookhaven National Laboratory. In this method the mice are dissected and whole organs or tissue samples (0.20-1.0 g) are measured for their boron content. […] Table 1 provides data for both the free base (compound of formula II wherein X is 2H) as well as the zinc chelate (compound of formula II wherein X is Zn), while Table 2 provides data for the free base. […] The long retention of porphyrins in tumor tissue can be exploited by waiting at least 4 days after it has cleared out of the blood before irradiation.

Substance: Na2 B12 H11 SH [BSH]
- retention in tumor cell (tumor cell): does not stay in the tumor cell but is easily washed out

Substance: dipotassium 2,4-bis-[2-(1,2-dicarbaundecaborate(-1))ethenyl]deuteroporphyrin IX [FREE BASE]
- boron in the normal brain (in words) [1]: only a small amount of boron in the normal brain
- crossing of the blood-brain barrier [1]: does not cross the blood-brain barrier
- retention of boron in tumor and clearance from blood (in words) [1]: retention of boron in the tumor with clearance from the blood over time
- tumor to blood ratio (comparison) [1]: higher for the free base
- uptake of boron into the tumor (in words) [1]: substantial uptake of boron into the tumor
- tumor to blood ratio ([1]; 2880 min): approximately 1:1
- tumor to blood ratio ([1]; 5760 min): approx. 5:1
- uptake in blood ([1]; ip, 48 h): 15.3 ± 1.5 μgB/g TISSUE
- uptake in brain ([1]; ip, 48 h): 2.0 μgB/g TISSUE
- uptake in kidney ([1]; ip, 48 h): 16.8 μgB/g TISSUE
- uptake in liver ([1]; ip, 48 h): 38.0 ± 11.9 μgB/g TISSUE
- uptake in lung ([1]; ip, 48 h): 20.8 μgB/g TISSUE
- uptake in muscle ([1]; ip, 48 h): 3.9 μgB/g TISSUE
- uptake in spleen ([1]; ip, 48 h): 8.5 μgB/g TISSUE
- uptake in tumor ([1]; ip, 48 h): 18.7 ± 3.4 μgB/g TISSUE
